In article PMC8333062, “Chemical tools for epichaperome-mediated interactome dysfunctions of the central nervous system” (Nature Communications, 2021):
Values joined by “and” are separate entries in the source; they are usually repeats but may differ in a detail not shown here. Equal values may be shown once. Read-outs that look alike come from different tables or passages of the source.

Key:
[1] = Pharmacokinetic studies in mice (LC-MS/MS); format: in vivo, B6D2F1 mice; design: key to Brain level: brain drug concentration in μM, corrected for 0.8 mL/g water space; Plasma level: unit: uM; conditions: for Brain level / Plasma level: listed as PU-HZ151
Protocol: Blood and brain tissue were collected following euthanasia at the scheduled time points of 5, 30 min, 1, 4, and 8 h following iv dosing and of 30 min, 1, 4, and 8 h following po dosing. Brain samples were immediately flash frozen in liquid nitrogen following collection and stored at −80 °C until analysis. Blood samples were collected into an EDTA tube by heart puncture and centrifuged at 17,000×g for 5 min at 4 °C to separate the plasma and immediately frozen on dry ice and stored at −80 °C until analysis. […] This was homogenized, extracted with methylene chloride, and evaporated on a GeneVac. […] Drug concentration (μM) in the brain was then modified to account for an average water space of 0.8 mL g^−1.

[2] = target: T1, 97 kinases (Homo sapiens, UniProt O14920); assay: scanEDGE off-target screen; format: binding; conditions: read-out: %Ctrl IKK-beta
T1 construct: purchased Ambit Biosciences (scanEDGE / KINOMEscan) scanEDGE 97 kinase panel; host or cells: T7 phage in E. coli BL21-derived host; remaining kinases in HEK-293 cells

[3] = target: T2, 97 kinases (Homo sapiens, UniProt O75116); assay: scanEDGE off-target screen; format: binding; conditions: read-out: %Ctrl ROCK2
T2 construct: purchased Ambit Biosciences (scanEDGE / KINOMEscan) scanEDGE 97 kinase panel; host or cells: T7 phage in E. coli BL21-derived host; remaining kinases in HEK-293 cells

[4] = target: T3, 97 kinases (Homo sapiens, UniProt P00519, E255K); assay: scanEDGE off-target screen; format: binding; conditions: read-out: %Ctrl ABL1(E255K)-phosphorylated
T3 construct: purchased Ambit Biosciences (scanEDGE / KINOMEscan) scanEDGE 97 kinase panel; host or cells: T7 phage in E. coli BL21-derived host; remaining kinases in HEK-293 cells

[5] = target: T4, 97 kinases (Homo sapiens, UniProt P00519, T315I); assay: scanEDGE off-target screen; format: binding; conditions: read-out: %Ctrl ABL1(T315I)-phosphorylated
T4 construct: purchased Ambit Biosciences (scanEDGE / KINOMEscan) scanEDGE 97 kinase panel; host or cells: T7 phage in E. coli BL21-derived host; remaining kinases in HEK-293 cells

[6] = target: T5, 97 kinases (Homo sapiens, UniProt P00533, L858R); assay: scanEDGE off-target screen; format: binding; conditions: read-out: %Ctrl EGFR(L858R)
T5 construct: purchased Ambit Biosciences (scanEDGE / KINOMEscan) scanEDGE 97 kinase panel; host or cells: T7 phage in E. coli BL21-derived host; remaining kinases in HEK-293 cells

[7] = target: T6, 97 kinases (Homo sapiens, UniProt P04049); assay: scanEDGE off-target screen; format: binding; conditions: read-out: %Ctrl RAF1
T6 construct: purchased Ambit Biosciences (scanEDGE / KINOMEscan) scanEDGE 97 kinase panel; host or cells: T7 phage in E. coli BL21-derived host; remaining kinases in HEK-293 cells

[8] = target: T7, 97 kinases (Homo sapiens, UniProt P04626); assay: scanEDGE off-target screen; format: binding; conditions: read-out: %Ctrl ERBB2
T7 construct: purchased Ambit Biosciences (scanEDGE / KINOMEscan) scanEDGE 97 kinase panel; host or cells: T7 phage in E. coli BL21-derived host; remaining kinases in HEK-293 cells

[9] = target: T8, 97 kinases (Homo sapiens, UniProt P04629); assay: scanEDGE off-target screen; format: binding; conditions: read-out: %Ctrl TRKA
T8 construct: purchased Ambit Biosciences (scanEDGE / KINOMEscan) scanEDGE 97 kinase panel; host or cells: T7 phage in E. coli BL21-derived host; remaining kinases in HEK-293 cells

[10] = target: T9, 97 kinases (Homo sapiens, UniProt P08069); assay: scanEDGE off-target screen; format: binding; conditions: read-out: %Ctrl IGF1R
T9 construct: purchased Ambit Biosciences (scanEDGE / KINOMEscan) scanEDGE 97 kinase panel; host or cells: T7 phage in E. coli BL21-derived host; remaining kinases in HEK-293 cells

[11] = target: T10, 97 kinases (Homo sapiens, UniProt P10721, D816V); assay: scanEDGE off-target screen; format: binding; conditions: read-out: %Ctrl KIT(D816V)
T10 construct: purchased Ambit Biosciences (scanEDGE / KINOMEscan) scanEDGE 97 kinase panel; host or cells: T7 phage in E. coli BL21-derived host; remaining kinases in HEK-293 cells

[12] = target: T11, 97 kinases (Homo sapiens, UniProt P10721, T670I/V559D); assay: scanEDGE off-target screen; format: binding; conditions: read-out: %Ctrl KIT(V559D,T670I)
T11 construct: purchased Ambit Biosciences (scanEDGE / KINOMEscan) scanEDGE 97 kinase panel; host or cells: T7 phage in E. coli BL21-derived host; remaining kinases in HEK-293 cells

[13] = target: T12, 97 kinases (Homo sapiens, UniProt P17612); assay: scanEDGE off-target screen; format: binding; conditions: read-out: %Ctrl PKAC-alpha
T12 construct: purchased Ambit Biosciences (scanEDGE / KINOMEscan) scanEDGE 97 kinase panel; host or cells: T7 phage in E. coli BL21-derived host; remaining kinases in HEK-293 cells

[14] = target: T13, 97 kinases (Homo sapiens, UniProt P21802); assay: scanEDGE off-target screen; format: binding; conditions: read-out: %Ctrl FGFR2
T13 construct: purchased Ambit Biosciences (scanEDGE / KINOMEscan) scanEDGE 97 kinase panel; host or cells: T7 phage in E. coli BL21-derived host; remaining kinases in HEK-293 cells

[15] = target: T14, 97 kinases (Homo sapiens, UniProt P22607); assay: scanEDGE off-target screen; format: binding; conditions: read-out: %Ctrl FGFR3
T14 construct: purchased Ambit Biosciences (scanEDGE / KINOMEscan) scanEDGE 97 kinase panel; host or cells: T7 phage in E. coli BL21-derived host; remaining kinases in HEK-293 cells

[16] = target: T15, 97 kinases (Homo sapiens, UniProt P27448); assay: scanEDGE off-target screen; format: binding; conditions: read-out: %Ctrl MARK3
T15 construct: purchased Ambit Biosciences (scanEDGE / KINOMEscan) scanEDGE 97 kinase panel; host or cells: T7 phage in E. coli BL21-derived host; remaining kinases in HEK-293 cells

[17] = target: T16, 97 kinases (Homo sapiens, UniProt P29317); assay: scanEDGE off-target screen; format: binding; conditions: read-out: %Ctrl EPHA2
T16 construct: purchased Ambit Biosciences (scanEDGE / KINOMEscan) scanEDGE 97 kinase panel; host or cells: T7 phage in E. coli BL21-derived host; remaining kinases in HEK-293 cells

[18] = target: T17, 97 kinases (Homo sapiens, UniProt P30530); assay: scanEDGE off-target screen; format: binding; conditions: read-out: %Ctrl AXL
T17 construct: purchased Ambit Biosciences (scanEDGE / KINOMEscan) scanEDGE 97 kinase panel; host or cells: T7 phage in E. coli BL21-derived host; remaining kinases in HEK-293 cells

[19] = target: T18, 97 kinases (Homo sapiens, UniProt P31749); assay: scanEDGE off-target screen; format: binding; conditions: read-out: %Ctrl AKT1
T18 construct: purchased Ambit Biosciences (scanEDGE / KINOMEscan) scanEDGE 97 kinase panel; host or cells: T7 phage in E. coli BL21-derived host; remaining kinases in HEK-293 cells

[20] = target: T19, 97 kinases (Homo sapiens, UniProt P31751); assay: scanEDGE off-target screen; format: binding; conditions: read-out: %Ctrl AKT2
T19 construct: purchased Ambit Biosciences (scanEDGE / KINOMEscan) scanEDGE 97 kinase panel; host or cells: T7 phage in E. coli BL21-derived host; remaining kinases in HEK-293 cells

[21] = target: T20, 97 kinases (Homo sapiens, UniProt P48736); assay: scanEDGE off-target screen; format: binding; conditions: read-out: %Ctrl PIK3CG
T20 construct: purchased Ambit Biosciences (scanEDGE / KINOMEscan) scanEDGE 97 kinase panel; host or cells: T7 phage in E. coli BL21-derived host; remaining kinases in HEK-293 cells

[22] = target: T21, 97 kinases (Homo sapiens, UniProt P53350); assay: scanEDGE off-target screen; format: binding; conditions: read-out: %Ctrl PLK1
T21 construct: purchased Ambit Biosciences (scanEDGE / KINOMEscan) scanEDGE 97 kinase panel; host or cells: T7 phage in E. coli BL21-derived host; remaining kinases in HEK-293 cells

[23] = target: T22, 97 kinases (Homo sapiens, UniProt P53779); assay: scanEDGE off-target screen; format: binding; conditions: read-out: %Ctrl JNK3
T22 construct: purchased Ambit Biosciences (scanEDGE / KINOMEscan) scanEDGE 97 kinase panel; host or cells: T7 phage in E. coli BL21-derived host; remaining kinases in HEK-293 cells

[24] = target: T23, 97 kinases (Homo sapiens, UniProt P80192); assay: scanEDGE off-target screen; format: binding; conditions: read-out: %Ctrl MLK1
T23 construct: purchased Ambit Biosciences (scanEDGE / KINOMEscan) scanEDGE 97 kinase panel; host or cells: T7 phage in E. coli BL21-derived host; remaining kinases in HEK-293 cells

[25] = target: T24, 97 kinases (Homo sapiens, UniProt Q05397); assay: scanEDGE off-target screen; format: binding; conditions: read-out: %Ctrl FAK
T24 construct: purchased Ambit Biosciences (scanEDGE / KINOMEscan) scanEDGE 97 kinase panel; host or cells: T7 phage in E. coli BL21-derived host; remaining kinases in HEK-293 cells

[26] = target: T25, 97 kinases (Homo sapiens, UniProt Q9BWU1); assay: scanEDGE off-target screen; format: binding; conditions: read-out: %Ctrl CDK11
T25 construct: purchased Ambit Biosciences (scanEDGE / KINOMEscan) scanEDGE 97 kinase panel; host or cells: T7 phage in E. coli BL21-derived host; remaining kinases in HEK-293 cells

[27] = target: T26, 97 kinases (Homo sapiens, UniProt Q9BXA7); assay: scanEDGE off-target screen; format: binding; conditions: read-out: %Ctrl TSSK1B
T26 construct: purchased Ambit Biosciences (scanEDGE / KINOMEscan) scanEDGE 97 kinase panel; host or cells: T7 phage in E. coli BL21-derived host; remaining kinases in HEK-293 cells

[28] = target: T27, 97 kinases (Homo sapiens, UniProt Q9P1W9); assay: scanEDGE off-target screen; format: binding; conditions: read-out: %Ctrl PIM2
T27 construct: purchased Ambit Biosciences (scanEDGE / KINOMEscan) scanEDGE 97 kinase panel; host or cells: T7 phage in E. coli BL21-derived host; remaining kinases in HEK-293 cells

[29] = target: T28, 97 kinases (Homo sapiens, UniProt Q9UM73); assay: scanEDGE off-target screen; format: binding; conditions: read-out: %Ctrl ALK
T28 construct: purchased Ambit Biosciences (scanEDGE / KINOMEscan) scanEDGE 97 kinase panel; host or cells: T7 phage in E. coli BL21-derived host; remaining kinases in HEK-293 cells

T6 sequence (P04049 whole entry): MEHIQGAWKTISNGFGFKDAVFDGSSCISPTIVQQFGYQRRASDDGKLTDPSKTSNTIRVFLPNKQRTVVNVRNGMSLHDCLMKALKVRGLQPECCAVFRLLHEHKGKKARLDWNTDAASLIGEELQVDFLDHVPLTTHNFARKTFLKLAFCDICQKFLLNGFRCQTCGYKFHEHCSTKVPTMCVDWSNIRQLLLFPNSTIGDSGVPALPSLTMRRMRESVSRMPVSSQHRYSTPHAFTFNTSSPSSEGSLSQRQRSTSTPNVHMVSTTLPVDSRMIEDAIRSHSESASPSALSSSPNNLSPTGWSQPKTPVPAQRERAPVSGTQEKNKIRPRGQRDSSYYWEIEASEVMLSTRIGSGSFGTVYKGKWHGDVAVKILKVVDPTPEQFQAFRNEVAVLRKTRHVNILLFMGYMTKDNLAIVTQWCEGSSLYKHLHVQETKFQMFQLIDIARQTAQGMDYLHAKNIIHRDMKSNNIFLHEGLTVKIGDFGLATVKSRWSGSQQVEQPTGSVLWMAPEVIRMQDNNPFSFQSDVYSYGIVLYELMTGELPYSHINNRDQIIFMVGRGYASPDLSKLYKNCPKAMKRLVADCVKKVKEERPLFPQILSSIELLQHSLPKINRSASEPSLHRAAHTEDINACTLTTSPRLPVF
T26 sequence (Q9BXA7 whole entry): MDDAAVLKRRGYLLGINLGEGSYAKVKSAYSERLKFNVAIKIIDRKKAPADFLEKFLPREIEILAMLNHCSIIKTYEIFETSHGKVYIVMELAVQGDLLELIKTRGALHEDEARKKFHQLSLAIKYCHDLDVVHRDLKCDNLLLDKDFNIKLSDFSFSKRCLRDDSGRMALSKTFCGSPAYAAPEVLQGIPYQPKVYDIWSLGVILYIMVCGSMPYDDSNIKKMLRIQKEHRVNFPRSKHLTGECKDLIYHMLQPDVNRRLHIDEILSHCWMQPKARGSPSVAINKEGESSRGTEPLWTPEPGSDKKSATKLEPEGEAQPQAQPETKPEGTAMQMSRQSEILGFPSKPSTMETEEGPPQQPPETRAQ
T2 sequence (O75116 whole entry): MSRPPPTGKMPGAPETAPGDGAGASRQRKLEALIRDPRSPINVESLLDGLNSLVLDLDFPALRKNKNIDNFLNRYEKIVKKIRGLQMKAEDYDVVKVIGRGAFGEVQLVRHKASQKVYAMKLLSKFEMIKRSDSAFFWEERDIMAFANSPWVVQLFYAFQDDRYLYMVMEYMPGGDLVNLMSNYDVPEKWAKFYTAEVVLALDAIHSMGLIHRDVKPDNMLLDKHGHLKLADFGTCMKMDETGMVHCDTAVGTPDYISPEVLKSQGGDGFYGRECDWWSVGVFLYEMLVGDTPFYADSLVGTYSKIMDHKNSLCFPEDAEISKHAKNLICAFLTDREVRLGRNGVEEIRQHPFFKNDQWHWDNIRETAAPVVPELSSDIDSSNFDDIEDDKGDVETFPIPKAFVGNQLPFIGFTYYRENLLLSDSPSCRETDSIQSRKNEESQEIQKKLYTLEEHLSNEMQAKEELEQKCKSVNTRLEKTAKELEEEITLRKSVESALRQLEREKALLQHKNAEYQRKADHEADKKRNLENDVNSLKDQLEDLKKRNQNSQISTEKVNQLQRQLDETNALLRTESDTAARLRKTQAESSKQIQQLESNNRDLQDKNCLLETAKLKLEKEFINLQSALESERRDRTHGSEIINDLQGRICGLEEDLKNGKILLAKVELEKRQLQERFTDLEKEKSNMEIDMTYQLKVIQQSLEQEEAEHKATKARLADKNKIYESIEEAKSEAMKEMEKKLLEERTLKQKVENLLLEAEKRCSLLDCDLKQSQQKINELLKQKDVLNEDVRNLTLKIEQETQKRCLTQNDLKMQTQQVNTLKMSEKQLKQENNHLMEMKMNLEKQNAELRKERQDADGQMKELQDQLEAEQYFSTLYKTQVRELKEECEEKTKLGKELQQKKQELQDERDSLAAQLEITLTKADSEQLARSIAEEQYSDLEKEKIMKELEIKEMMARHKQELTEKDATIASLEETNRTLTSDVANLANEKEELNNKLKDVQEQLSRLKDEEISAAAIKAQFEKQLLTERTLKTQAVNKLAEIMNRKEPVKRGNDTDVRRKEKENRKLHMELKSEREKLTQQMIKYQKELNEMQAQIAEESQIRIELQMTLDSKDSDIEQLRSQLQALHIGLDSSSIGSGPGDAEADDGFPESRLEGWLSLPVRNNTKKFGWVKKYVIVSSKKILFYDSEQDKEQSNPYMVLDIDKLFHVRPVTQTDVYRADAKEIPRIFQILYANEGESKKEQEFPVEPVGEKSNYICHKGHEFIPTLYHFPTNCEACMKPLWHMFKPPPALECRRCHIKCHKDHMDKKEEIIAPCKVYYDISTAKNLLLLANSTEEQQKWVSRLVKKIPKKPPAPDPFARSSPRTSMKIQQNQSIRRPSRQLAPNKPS
T16 sequence (P29317 24-976): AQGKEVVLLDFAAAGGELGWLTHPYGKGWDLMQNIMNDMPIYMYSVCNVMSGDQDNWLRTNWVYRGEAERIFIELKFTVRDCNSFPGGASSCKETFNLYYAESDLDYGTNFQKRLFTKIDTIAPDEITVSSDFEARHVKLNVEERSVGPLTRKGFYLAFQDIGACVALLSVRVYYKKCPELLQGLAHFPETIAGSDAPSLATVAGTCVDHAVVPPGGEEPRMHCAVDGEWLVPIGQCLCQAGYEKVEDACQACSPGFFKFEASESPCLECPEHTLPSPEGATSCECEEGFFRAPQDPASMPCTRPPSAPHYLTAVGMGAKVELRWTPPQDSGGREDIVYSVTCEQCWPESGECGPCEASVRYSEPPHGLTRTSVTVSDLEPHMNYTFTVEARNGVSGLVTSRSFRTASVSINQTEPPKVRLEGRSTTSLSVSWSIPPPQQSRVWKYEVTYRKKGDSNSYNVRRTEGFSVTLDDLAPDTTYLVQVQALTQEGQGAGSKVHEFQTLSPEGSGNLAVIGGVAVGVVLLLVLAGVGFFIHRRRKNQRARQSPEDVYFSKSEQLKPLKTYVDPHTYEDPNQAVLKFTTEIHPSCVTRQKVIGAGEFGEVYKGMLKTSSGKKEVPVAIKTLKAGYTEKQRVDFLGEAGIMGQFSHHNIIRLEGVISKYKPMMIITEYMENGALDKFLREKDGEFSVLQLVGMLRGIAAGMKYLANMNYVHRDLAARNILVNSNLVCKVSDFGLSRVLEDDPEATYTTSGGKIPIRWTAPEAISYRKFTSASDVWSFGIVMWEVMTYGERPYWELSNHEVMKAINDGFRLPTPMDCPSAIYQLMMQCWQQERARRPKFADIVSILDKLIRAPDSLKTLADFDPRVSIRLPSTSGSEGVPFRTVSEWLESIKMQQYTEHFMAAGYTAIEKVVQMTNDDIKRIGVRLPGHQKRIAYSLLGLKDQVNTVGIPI
T7 sequence (P04626 23-1255): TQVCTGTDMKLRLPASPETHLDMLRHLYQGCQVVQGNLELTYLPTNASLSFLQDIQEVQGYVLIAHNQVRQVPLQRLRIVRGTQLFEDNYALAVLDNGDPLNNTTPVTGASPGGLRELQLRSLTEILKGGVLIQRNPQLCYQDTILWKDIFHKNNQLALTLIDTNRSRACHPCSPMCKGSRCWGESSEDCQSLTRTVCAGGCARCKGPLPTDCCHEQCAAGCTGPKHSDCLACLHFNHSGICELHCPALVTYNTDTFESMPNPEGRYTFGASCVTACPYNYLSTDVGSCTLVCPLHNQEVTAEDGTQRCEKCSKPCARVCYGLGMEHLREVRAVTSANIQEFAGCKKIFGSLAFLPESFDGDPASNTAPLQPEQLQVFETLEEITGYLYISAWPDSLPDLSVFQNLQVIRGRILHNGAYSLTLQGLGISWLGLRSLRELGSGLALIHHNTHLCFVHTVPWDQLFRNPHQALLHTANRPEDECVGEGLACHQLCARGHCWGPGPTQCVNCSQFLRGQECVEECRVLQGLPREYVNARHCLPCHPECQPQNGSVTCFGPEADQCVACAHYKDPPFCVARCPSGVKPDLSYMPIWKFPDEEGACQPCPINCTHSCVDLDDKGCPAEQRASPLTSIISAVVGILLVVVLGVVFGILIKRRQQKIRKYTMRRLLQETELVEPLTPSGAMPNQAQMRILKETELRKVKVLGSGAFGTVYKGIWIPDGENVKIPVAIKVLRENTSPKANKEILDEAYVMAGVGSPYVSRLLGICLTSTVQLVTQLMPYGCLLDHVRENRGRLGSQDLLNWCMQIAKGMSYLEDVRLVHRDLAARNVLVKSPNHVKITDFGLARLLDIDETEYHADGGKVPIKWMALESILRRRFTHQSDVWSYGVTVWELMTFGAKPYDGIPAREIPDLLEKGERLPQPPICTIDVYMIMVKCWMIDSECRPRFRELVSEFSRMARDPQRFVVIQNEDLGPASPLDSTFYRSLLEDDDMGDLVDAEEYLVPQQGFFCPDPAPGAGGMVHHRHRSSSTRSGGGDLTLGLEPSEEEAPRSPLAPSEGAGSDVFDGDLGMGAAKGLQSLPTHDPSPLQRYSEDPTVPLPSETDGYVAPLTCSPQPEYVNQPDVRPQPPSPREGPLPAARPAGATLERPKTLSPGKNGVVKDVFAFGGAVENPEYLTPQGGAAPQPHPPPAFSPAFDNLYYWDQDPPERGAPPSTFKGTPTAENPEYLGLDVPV
T19 sequence (P31751 whole entry): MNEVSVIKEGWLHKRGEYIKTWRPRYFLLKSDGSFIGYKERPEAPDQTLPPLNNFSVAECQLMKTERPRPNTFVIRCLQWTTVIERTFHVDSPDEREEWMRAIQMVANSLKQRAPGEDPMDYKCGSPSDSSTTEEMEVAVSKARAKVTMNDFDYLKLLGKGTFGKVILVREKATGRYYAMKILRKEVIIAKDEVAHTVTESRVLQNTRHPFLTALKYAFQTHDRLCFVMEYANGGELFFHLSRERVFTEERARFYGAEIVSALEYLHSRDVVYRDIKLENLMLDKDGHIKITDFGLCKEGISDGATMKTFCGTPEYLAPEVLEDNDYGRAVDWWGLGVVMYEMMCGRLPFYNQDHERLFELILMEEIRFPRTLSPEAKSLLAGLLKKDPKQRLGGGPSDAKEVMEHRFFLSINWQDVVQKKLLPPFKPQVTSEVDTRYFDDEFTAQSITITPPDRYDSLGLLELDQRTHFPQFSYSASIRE

SMILES: CC(C)(C)CNCCn1c(Sc2cc3c(cc2I)OCO3)nc2c(N)ncnc21 [Compound 85]
- Brain level ([1]; time 5 min, individual animals): 15.4588 and 7.86 and 11.67
- Brain level ([1]; time 0.5 h, individual animals): 4.224 and 4.34 and 4.57
- Brain level ([1]; time 1 h, individual animals): 2.2188 and 1.91 and 1.47
- Brain level ([1]; time 4 h, individual animals): 0.07412 and 0.06266 and 0.11 and 0.04
- Brain level ([1]; time 8 h, individual animals): 0.009121 and 0.03148 and 0.03 and 0.11
- Plasma level ([1]; time 5 min, individual animals): 9.01 and 9.336 and 14.2069 and 3.61
- Plasma level ([1]; time 0.5 h, individual animals): 1.67 and 1.018 and 1.136 and 1.35
- Plasma level ([1]; time 1 h, individual animals): 0.32 and 0.7228 and 0.6745 and 0.42
- Plasma level ([1]; time 4 h, individual animals): 0.02 and 0.03223 and 0.03275 and 0.03
- Plasma level ([1]; time 8 h, individual animals): 0.01 (2×) and 0 (2×)
- brain exposure relative to PU-H71 ([1]; i.v. 10 mg kg^−1): approximately ten-fold higher
- Cmax ([1]; male, B6D2F1, mouse, brain and lung, iv, single i.v. 10 mg/kg): 10 to 15 µM
- Kp ([1]; male, B6D2F1, mouse, brain, 10 mg kg^−1, oral administration, read-out: brain/plasma): 1.6
- concentration at 5 min ([1]; male, B6D2F1, mouse, brain, intravenous, 10 mg kg^-1, Brain, time 5 min, individual animals, read-out: Brain level): 13.5 µM
- concentration at 0.5 h ([1]; male, B6D2F1, mouse, brain, intravenous, 10 mg kg^−1, Brain, time 0.5 h, individual animals, read-out: Brain level): 4.58 µM
- concentration at 1 h ([1]; male, B6D2F1, mouse, brain, intravenous, 10 mg kg^−1, Brain, time 1 h, individual animals, read-out: Brain level): 2.06 µM
- Kp ([1]; male, B6D2F1, mouse, brain, iv, 10 mg kg^−1, read-out: brain to plasma ratio): 2.35
- AUC ([1]; male, B6D2F1, mouse, brain, iv, i.v. 10 mg kg^−1, read-out: brain exposure, AUC): 8.25 µM·h
- AUC ([1]; male, B6D2F1, mouse, plasma, iv, i.v. 10 mg kg^−1, read-out: plasma exposure, AUC): 3.52 µM·h
- bioavailability ([1]; male, B6D2F1, mouse, plasma, oral, 10 mg kg^−1): 68%
- remaining binding at 10 µM [2]: 88%
- remaining binding at 10 µM [3]: 97%
- remaining binding at 10 µM [4]: 80%
- remaining binding at 10 µM [5]: 96%
- remaining binding at 10 µM [6]: 93%
- remaining binding at 10 µM [7]: 74%
- remaining binding at 10 µM [8]: 100%
- remaining binding at 10 µM [9]: 95%
- remaining binding at 10 µM [10]: 100%
- remaining binding at 10 µM [11]: 93%
- remaining binding at 10 µM [12]: 96%
- remaining binding at 10 µM [13]: 87%
- remaining binding at 10 µM [14]: 63%
- remaining binding at 10 µM [15]: 95%
- remaining binding at 10 µM [16]: 100%
- remaining binding at 10 µM [17]: 91%
- remaining binding at 10 µM [18]: 100%
- remaining binding at 10 µM [19]: 93%
- remaining binding at 10 µM [20]: 87%
- remaining binding at 10 µM [21]: 94%
- remaining binding at 10 µM [22]: 97%
- remaining binding at 10 µM [23]: 100%
- remaining binding at 10 µM [24]: 100%
- remaining binding at 10 µM [25]: 96%
- remaining binding at 10 µM [26]: 90%
- remaining binding at 10 µM [27]: 51%
- remaining binding at 10 µM [28]: 81%
- remaining binding at 10 µM [29]: 93%
